Experimental data taken from US10730863B2, “Bridged bicyclic compounds as farnesoid X receptor modulators” (BRISTOL-MYERS SQUIBB COMPANY, priority 2017, dated 2020).

Molecular target: FXR (Homo sapiens (Human), UniProt Q96RI1)
Assay: FXR EC50 (FXR agonist activity reported with each example)
Type: cell-based

Chain of FXR (Q96RI1 262-486): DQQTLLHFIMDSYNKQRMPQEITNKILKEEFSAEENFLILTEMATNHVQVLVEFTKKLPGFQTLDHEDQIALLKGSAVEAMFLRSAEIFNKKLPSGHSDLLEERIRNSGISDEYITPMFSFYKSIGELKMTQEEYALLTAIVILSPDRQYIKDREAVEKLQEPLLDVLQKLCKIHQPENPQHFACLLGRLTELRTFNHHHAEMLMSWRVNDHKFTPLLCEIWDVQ

Question: Which EC50 does the source give for `COc1ccc(-c2nc(C34CCC(OCc5c(-c6c(Cl)cncc6Cl)noc5C5CC5)(CC3)CC4)c[nH]2)cc1C(=O)O` [Example 259, 5-(4-(4-((5-cyclopropyl-3-(3,5-dichloropyridin-4-yl)isoxazol-4-yl)methoxy)bicyclo[2.2.2]octan-1-yl)-1H-imidazol-2-yl)-2-methoxybenzoic acid] here?
Answer: The EC50 was 5500 nM.

Question: How did the EC50 turn out when `O=C(O)c1ccc(C23CCC(OCc4c(-c5c(Cl)cccc5Cl)noc4C4CC4)(CC2)CC3)nc1` [Example 138, 6-(4-((5-cyclopropyl-3-(2,6-dichlorophenyl)isoxazol-4-yl)methoxy)bicyclo[2.2.2]octan-1-yl)nicotinic acid] was run?
Answer: The EC50 was 440 nM.

Question: Which EC50 does the source give for `O=C(O)c1cc(-c2noc(C34CCC(OCc5c(-c6c(Cl)cncc6Cl)noc5C5CC5)(CC3)CC4)n2)cc(OCC(F)(F)F)n1` [Example 263, 4-(5-(4-((5-cyclopropyl-3-(3,5-dichloropyridin-4-yl)isoxazol-4-yl)methoxy)bicyclo[2.2.2]octan-1-yl)-1,2,4-oxadiazol-3-yl)-6-(2,2,2-trifluoroethoxy)picolinic acid] here?
Answer: Its EC50 is 95 nM.

Question: Which EC50 does the source give for `O=C(O)c1cn(CC23CCC(OCc4c(-c5c(Cl)cccc5Cl)noc4C4CC4)(CC2)CC3)nc1C(F)F` [Example 268, 1-((4-((5-cyclopropyl-3-(2,6-dichlorophenyl)isoxazol-4-yl)methoxy)bicyclo[2.2.2]octan-1-yl)methyl)-3-(difluoromethyl)-1H-pyrazole-4-carboxylic acid] here?
Answer: The EC50 was 460 nM.

Question: For `CN1CCN(c2ccc(C(=O)O)c3ccc(C45CCC(OCc6c(-c7c(Cl)cncc7Cl)noc6C6CC6)(CC4)CC5)nc23)CC1` [Example 413], which EC50 is on record?
Answer: Its EC50 is 1500 nM.

Question: `Cn1nc(OCC23CCC(OCc4c(-c5c(Cl)cncc5Cl)noc4C4CC4)(CC2)CC3)cc1C(=O)O` [Example 315] was tested. Which EC50 did it give?
Answer: Its EC50 is 340 nM.

Question: With `O=C(O)c1ccc(OC2CCC2)c2nc(C34CCC(OCc5c(-c6c(Cl)cncc6Cl)noc5C5CC5)(CC3)CC4)ccc12` [Example 405] as the compound, how does the EC50 read?
Answer: The EC50 was 28 nM.

Question: With `COc1ccc(-c2nc(C34CCC(OCc5c(-c6c(Cl)cncc6Cl)noc5C5CC5)(CC3)CC4)cs2)cc1C(=O)O` [Example 255, 5-(4-(4-((5-cyclopropyl-3-(3,5-dichloropyridin-4-yl)isoxazol-4-yl)methoxy)bicyclo[2.2.2]octan-1-yl)thiazol-2-yl)-2-methoxybenzoic acid] as the compound, how does the EC50 read?
Answer: Its EC50 is 18 nM.

Question: For `O=C(O)c1ccnc(C#CC23CCC(OCc4c(-c5c(Cl)cccc5Cl)noc4C4CC4)(CC2)CC3)c1` [Example 132, 2-((4-((5-cyclopropyl-3-(2,6-dichlorophenyl)isoxazol-4-yl)methoxy)bicyclo[2.2.2]octan-1-yl)ethynyl)isonicotinic acid], which EC50 is on record?
Answer: The EC50 was 3500 nM.

Question: How did the EC50 turn out when `COc1ccc(-c2nc(C34CCC(OCc5c(-c6c(Cl)cncc6Cl)noc5C5CC5)(CC3)CC4)no2)cc1C(=O)O` [Example 234, 5-(3-(4-((5-cyclopropyl-3-(3,5-dichloropyridin-4-yl)isoxazol-4-yl)methoxy)bicyclo[2.2.2]octan-1-yl)-1,2,4-oxadiazol-5-yl)-2-methoxybenzoic acid] was run?
Answer: Its EC50 is 190 nM.

Question: For `O=C(O)c1cc(F)cc2nc(OCC34CCC(OCc5c(-c6c(Cl)cncc6Cl)noc5C5CC5)(CC3)CC4)sc12` [Example 463, 2-((4-((5-cyclopropyl-3-(3,5-dichloropyridin-4-yl)isoxazol-4-yl)methoxy)bicyclo[2.2.2]octan-1-yl)methoxy)-5-fluorobenzo[d]thiazole-7-carboxylic acid], which EC50 is on record?
Answer: Its EC50 is 41 nM.

Question: For `O=C(O)c1cc(C(F)(F)F)c2cc(C#CC34CCC(OCc5c(-c6c(Cl)cncc6Cl)noc5C5CC5)(CC3)CC4)ccc2n1` [Example 364], which EC50 is on record?
Answer: Its EC50 is 42 nM.

Question: For `O=C(O)c1ccc(OC2CCOCC2)c2nc(C34CCC(OCc5c(-c6c(Cl)cncc6Cl)noc5C5CC5)(CC3)CC4)ccc12` [Example 414], which EC50 is on record?
Answer: Its EC50 is 29 nM.

Question: For `O=C(O)c1cc(OC(F)F)c2cc(OCC34CCC(/C=C/c5c(-c6c(Cl)cncc6Cl)noc5C5CC5)(CC3)OC4)ccc2n1` [Example 472, (E)-6-((1-(2-(5-cyclopropyl-3-(3,5-dichloropyridin-4-yl)isoxazol-4-yl)vinyl)-2-oxabicyclo[2.2.2]octan-4-yl)methoxy)-4-(difluoromethoxy)quinoline-2-carboxylic acid], which EC50 is on record?
Answer: The EC50 was 290 nM.

Question: `NC(=O)c1cnc(OCC23CCC(OCc4c(-c5c(Cl)cncc5Cl)noc4C4CC4)(CC2)CC3)c(C(F)(F)F)c1` [Example 278, 6-((4-((5-cyclopropyl-3-(3,5-dichloropyridin-4-yl)isoxazol-4-yl)methoxy)bicyclo[2.2.2]octan-1-yl)methoxy)-5-(trifluoromethyl)nicotinamide] was tested. Which EC50 did it give?
Answer: Its EC50 is 620 nM.

Question: With `COc1cc(OCC23CCC(/C=C/c4c(-c5c(Cl)cncc5Cl)noc4C4CC4)(CC2)OC3)cc(C(=O)O)c1` [Example 474, (E)-3-((1-(2-(5-cyclopropyl-3-(3,5-dichloropyridin-4-yl)isoxazol-4-yl)vinyl)-2-oxabicyclo[2.2.2]octan-4-yl)methoxy)-5-methoxybenzoic acid] as the compound, how does the EC50 read?
Answer: The EC50 was 490 nM.

Question: `O=C(O)c1cccc2c1CCN(C(=O)C13CCC(OCc4c(-c5c(Cl)cccc5Cl)noc4C4CC4)(CC1)CC3)C2` [Example 139, 2-(4-((5-cyclopropyl-3-(2,6-dichlorophenyl)isoxazol-4-yl)methoxy)bicyclo[2.2.2]octane-1-carbonyl)-1,2,3,4-tetrahydroisoquinoline-5-carboxylic acid] was tested. Which EC50 did it give?
Answer: The EC50 was 1400 nM.

Question: `COc1cncc(Cl)c1-c1noc(C2CC2)c1COC12CCC(COc3cc(OC)c4cc(C(=O)O)ccc4n3)(CC1)CC2` [Example 350, 2-((4-((3-(3-chloro-5-methoxypyridin-4-yl)-5-cyclopropylisoxazol-4-yl)methoxy)bicyclo[2.2.2]octan-1-yl)methoxy)-4-methoxyquinoline-6-carboxylic acid] was tested. Which EC50 did it give?
Answer: The EC50 was 890 nM.

Question: With `Cc1ccc(C(=O)O)c2ccc(C34CCC(OCc5c(-c6c(Cl)cncc6Cl)noc5C5CC5)(CC3)CC4)nc12` [Example 389] as the compound, how does the EC50 read?
Answer: The EC50 was 6 nM.

Question: Which EC50 does the source give for `O=C(O)c1cc(OC2COC2)c2cc(OCC34CCC(OCc5c(-c6c(Cl)cncc6Cl)noc5C5CC5)(CC3)CC4)cc(F)c2n1` [Example 312, 6-((4-((5-cyclopropyl-3-(3,5-dichloropyridin-4-yl)isoxazol-4-yl)methoxy)bicyclo[2.2.2]octan-1-yl)methoxy)-8-fluoro-4-(oxetan-3-yloxy)quinoline-2-carboxylic acid] here?
Answer: The EC50 was 47 nM.

Question: For `O=C(O)c1cc(F)c2nc(OCC34CCC(OCc5c(-c6ccccc6OC(F)(F)F)noc5C5CC5)(CC3)CC4)sc2c1` [Example 79], which EC50 is on record?
Answer: Its EC50 is 130 nM.

Question: `COc1cc(C(=O)O)nc2ccc(OCC34CCC(OCc5c(-c6c(Cl)cncc6Cl)noc5C5CC5)(CC3)CC4)cc12` [Example 282, 6-((4-((5-cyclopropyl-3-(3,5-dichloropyridin-4-yl)isoxazol-4-yl)methoxy)bicyclo[2.2.2]octan-1-yl)methoxy)-4-methoxyquinoline-2-carboxylic acid] was tested. Which EC50 did it give?
Answer: The EC50 was 60 nM.

Question: For `NC(=O)c1ccc(C23CCC(CNc4c(-c5c(Cl)cccc5Cl)noc4C4CC4)(CC2)CO3)cc1` [Example 208, 4-(4-(((5-cyclopropyl-3-(2,6-dichlorophenyl)isoxazol-4-yl)amino)methyl)-2-oxabicyclo[2.2.2]octan-1-yl)benzamide], which EC50 is on record?
Answer: Its EC50 is 710 nM.

Question: For `O=C(O)c1cccc(CNC(=O)C23CCC(OCc4c(-c5c(Cl)cccc5Cl)noc4C4CC4)(CC2)CC3)c1` [Example 143, 3-((4-((5-cyclopropyl-3-(2,6-dichlorophenyl)isoxazol-4-yl)methoxy)bicyclo[2.2.2]octane-1-carboxamido)methyl)benzoic acid], which EC50 is on record?
Answer: The EC50 was 1300 nM.

Question: For `COC(=O)c1cccc(-c2noc(C34CCC(C=Cc5c(-c6c(Cl)cccc6Cl)noc5C5CC5)(CC3)CC4)n2)c1` [Intermediate 159F, methyl 3-(5-(4-(2-(5-cyclopropyl-3-(2,6-dichlorophenyl)isoxazol-4-yl)vinyl)bicyclo[2.2.2]octan-1-yl)-1,2,4-oxadiazol-3-yl)benzoate], which EC50 is on record?
Answer: The EC50 was 4600 nM.

Question: Which EC50 does the source give for `NC(=O)c1cc(C(F)(F)F)cc(C23CCC(COCc4c(-c5c(Cl)cncc5Cl)noc4C4CC4)(CC2)CO3)c1` [Example 489, 3-(4-(((5-cyclopropyl-3-(3,5-dichloropyridin-4-yl)isoxazol-4-yl)methoxy)methyl)-2-oxabicyclo[2.2.2]octan-1-yl)-5-(trifluoromethyl)benzamide] here?
Answer: The EC50 was 1400 nM.

Question: `CC(C)Oc1cc(C#CC23CCC(OCc4c(-c5c(Cl)cncc5Cl)noc4C4CC4)(CC2)CC3)cc(C(=O)O)c1` [Example 400] was tested. Which EC50 did it give?
Answer: Its EC50 is 29 nM.

Question: How did the EC50 turn out when `O=C(O)c1cc(F)cc(-c2noc(C34CCC(/C=C/c5c(-c6c(Cl)cncc6Cl)noc5C5CC5)(CC3)CC4)n2)c1` [Example 442, (E)-3-(5-(4-(2-(5-cyclopropyl-3-(3,5-dichloropyridin-4-yl)isoxazol-4-yl)vinyl)bicyclo[2.2.2]octan-1-yl)-1,2,4-oxadiazol-3-yl)-5-fluorobenzoic acid] was run?
Answer: Its EC50 is 79 nM.

Question: For `O=C(O)c1cccc(-c2noc(C34CCC(OCc5c(-c6ccccc6C(F)(F)F)noc5C5CC5)(CC3)CC4)n2)c1` [Example 25], which EC50 is on record?
Answer: Its EC50 is 300 nM.

Question: Which EC50 does the source give for `COCc1cc(OCC23CCC(OCc4c(-c5c(Cl)cncc5Cl)noc4C4CC4)(CC2)CC3)cnc1C(=O)O` [Example 293, 5-((4-((5-cyclopropyl-3-(3,5-dichloropyridin-4-yl)isoxazol-4-yl)methoxy)bicyclo[2.2.2]octan-1-yl)methoxy)-3-(methoxymethyl)picolinic acid] here?
Answer: The EC50 was 16 nM.

Question: For `O=C(O)c1csc(C23CCC(COCc4c(-c5ccccc5OC(F)(F)F)noc4C4CC4)(CC2)CO3)n1` [Example 214], which EC50 is on record?
Answer: The EC50 was 1400 nM.

Question: For `O=C(O)c1ccc(-c2noc(C34CCC(C=Cc5c(-c6c(Cl)cccc6Cl)noc5C5CC5)(CC3)C4)n2)cc1` [Example 226, 4-(5-(4-(2-(5-cyclopropyl-3-(2,6-dichlorophenyl)isoxazol-4-yl)vinyl)bicyclo[2.2.1]heptan-1-yl)-1,2,4-oxadiazol-3-yl)benzoic acid], which EC50 is on record?
Answer: The EC50 was 420 nM.

Question: `O=C(O)c1cc(OC(F)F)c2cc(OCC34CCC(/C=C/c5c(-c6c(Cl)cncc6Cl)noc5C5CC5)(CC3)CO4)ccc2n1` [Example 498, (E)-6-((4-(2-(5-cyclopropyl-3-(3,5-dichloropyridin-4-yl)isoxazol-4-yl)vinyl)-2-oxabicyclo[2.2.2]octan-1-yl)methoxy)-4-(difluoromethoxy)quinoline-2-carboxylic acid] was tested. Which EC50 did it give?
Answer: Its EC50 is 250 nM.
